Results reported in patent US11524966B1 (Valo Early Discovery, Inc., priority 2017, dated 2022).

What follows are molecules tested against T1, USP28 (His-tagged USP28-FL-mammalian) (Homo sapiens, UniProt Q96RU2) (assay: Ubiquitin-Rhodamine 110 Assay for USP28 Activity, Example A-1(a)). Details: Ubiquitin-Rhodamine 110 assay, Example A-1(a); read-out: USP28 A-1(a) IC50 range.
T1 construct: Expression of USP28 (1-1077)-TEV-6*His (pTT5 vector); made in house; host or cells: Expi293f cells (pTT5 vector)
T1 sequence (Q96RU2 1-1077): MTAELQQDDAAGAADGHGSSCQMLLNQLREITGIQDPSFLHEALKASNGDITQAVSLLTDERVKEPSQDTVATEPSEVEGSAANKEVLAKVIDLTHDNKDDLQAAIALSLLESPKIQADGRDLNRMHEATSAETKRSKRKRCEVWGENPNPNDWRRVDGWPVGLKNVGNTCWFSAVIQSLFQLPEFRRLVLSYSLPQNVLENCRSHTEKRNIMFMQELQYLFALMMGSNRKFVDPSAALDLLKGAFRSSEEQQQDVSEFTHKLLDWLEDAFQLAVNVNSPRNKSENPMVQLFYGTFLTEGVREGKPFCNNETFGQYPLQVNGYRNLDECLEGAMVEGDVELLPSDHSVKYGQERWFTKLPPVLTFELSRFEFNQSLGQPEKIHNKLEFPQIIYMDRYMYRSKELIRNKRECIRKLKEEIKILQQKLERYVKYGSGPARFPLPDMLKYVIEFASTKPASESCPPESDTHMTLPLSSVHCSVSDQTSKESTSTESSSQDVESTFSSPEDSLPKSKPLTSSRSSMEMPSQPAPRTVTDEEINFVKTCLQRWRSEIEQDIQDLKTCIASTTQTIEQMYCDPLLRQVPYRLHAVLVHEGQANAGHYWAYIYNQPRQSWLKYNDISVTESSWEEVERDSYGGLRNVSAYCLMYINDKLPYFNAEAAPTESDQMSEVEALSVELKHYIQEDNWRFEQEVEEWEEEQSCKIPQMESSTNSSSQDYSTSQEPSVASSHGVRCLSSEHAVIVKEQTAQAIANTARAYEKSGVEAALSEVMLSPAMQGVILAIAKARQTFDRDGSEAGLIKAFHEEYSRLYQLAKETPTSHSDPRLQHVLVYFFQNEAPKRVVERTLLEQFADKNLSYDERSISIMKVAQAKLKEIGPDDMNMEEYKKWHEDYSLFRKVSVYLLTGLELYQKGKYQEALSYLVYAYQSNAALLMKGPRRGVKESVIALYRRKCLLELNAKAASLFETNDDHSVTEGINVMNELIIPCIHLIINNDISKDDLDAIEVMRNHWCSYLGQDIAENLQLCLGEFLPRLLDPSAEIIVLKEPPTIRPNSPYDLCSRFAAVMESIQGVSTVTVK
Type: biochemical
Procedure, shortened: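 Full-length His-tagged human USP28 (1-1077, Expi293f-expressed), […], with 25 nM Ub-Rh110 (<<Km) in pH 8.0 Tris buffer with BME, BGG, Triton X-100. 10-point dilutions (25 μM-1.3 nM), 45 min at room temperature, citric acid stop, fluorescence 485/535 nm; IC50 by 4-parameter fit.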
`CO[C@H]1CN(c2cc3c(cc2F)C[C@@H](NC(=O)c2sc4nc(C)ccc4c2N)CO3)C[C@@H]1N` [Example 94, 3-amino-N-[(3R)-7-[(3S,4S)-3-amino-4-methoxypyrrolidin-1-yl]-6-fluoro-3,4-dihydro-2H-1-benzopyran-3-yl]-6-methylthieno[2,3-b]pyridine-2-carboxamide] was tested, and the IC50 was 1 to 50 nM. `Cc1ccc2c(N)c(C(=O)N[C@H]3COc4c(C#N)c(N5CC6CCC(C5)N6)cc(F)c4C3)sc2n1` [Example 95, 3-amino-N-[(3R)-8-cyano-7-{3,8-diazabicyclo[3.2.1]octan-3-yl}-5-fluoro-3,4-dihydro-2H-1-benzopyran-3-yl]-6-methylthieno[2,3-b]pyridine-2-carboxamide] was tested, and the IC50 was 1 to 50 nM. Molecule `Cc1ccc2c(N)c(C(=O)N[C@H]3COc4c(C#N)c(N5CC6CNCC(C5)O6)cc(F)c4C3)sc2n1` [Example 96, 3-amino-N-[(3R)-8-cyano-5-fluoro-7-{9-oxa-3,7-diazabicyclo[3.3.1]nonan-3-yl}-3,4-dihydro-2H-1-benzopyran-3-yl]-6-methylthieno[2,3-b]pyridine-2-carboxamide] has an IC50 of 1 to 50 nM. Work on `Cc1cnc2c(N)c(C(=O)N[C@H]3COc4cc(N5CC6CCC(C5)N6)c(F)c(F)c4C3)sc2n1` [Example 97, 7-amino-N-[(3R)-7-{3,8-diazabicyclo[3.2.1]octan-3-yl]-5,6-difluoro-3,4-dihydro-2H-1-benzopyran-3-yl]-3-methylthieno[2,3-b]pyrazine-6-carboxamide] yielded an IC50 of 1 to 50 nM. Molecule `Cc1nc2sc(C(=O)N[C@H]3COc4c(F)c(N5CC6CCC(C5)N6)cc(F)c4C3)c(N)c2s1` [Example 98, 6-amino-N-[(3R)-7-{3,8-diazabicyclo[3.2.1]octan-3-yl}-5,8-difluoro-3,4-dihydro-2H-1-benzopyran-3-yl]-2-methylthieno[2,3-d][1, 3]thiazole-5-carboxamide] has an IC50 of 1 to 50 nM. In the case of `Cc1ccc2c(N)c(C(=O)N[C@H]3CCc4c(ccc(N5CC6CNCC(C5)O6)c4F)C3)sc2n1` [Example 99, 3-amino-N-[(2S)-5-fluoro-6-{9-oxa-3,7-diazabicyclo[3.3.1]nonan-3-yl}-1,2,3,4-tetrahydronaphthalen-2-yl]-6-methylthieno[2,3-b]pyridine-2-carboxamide], the IC50 is reported as 1 to 50 nM. With `Cc1ccc2c(N)c(C(=O)N[C@@H]3CCc4c(ccc(N5CC6CNCC(C5)O6)c4F)C3)sc2n1` [Example 100, 3-amino-N-[(2R)-5-fluoro-6-{9-oxa-3,7-diazabicyclo[3.3.1]nonan-3-yl}-1,2,3,4-tetrahydronaphthalen-2-yl]-6-methylthieno[2,3-b]pyridine-2-carboxamide] the IC50 was 50 to 200 nM. With `Cc1ccc2c(N)c(C(=O)N[C@H]3CCc4cc(N5CC6CNCC(C5)O6)c(F)cc4C3)sc2n1` [Example 101, 3-amino-N-[(2S)-7-fluoro-6-{9-oxa-3,7-diazabicyclo[3.3.1]nonan-3-yl}-1,2,3,4-tetrahydronaphthalen-2-yl]-6-methylthieno[2,3-b]pyridine-2-carboxamide] the IC50 was 1 to 50 nM. Work on `Cc1ccc2c(N)c(C(=O)N[C@H]3CCc4c(ccc(N5CC6CNCC(C5)O6)c4C#N)C3)sc2n1` [Example 102, 3-amino-N-[(2S)-5-cyano-6-{9-oxa-3,7-diazabicyclo[3.3.1]nonan-3-yl}-1,2,3,4-tetrahydronaphthalen-2-yl]-6-methylthieno[2,3-b]pyridine-2-carboxamide] yielded an IC50 of 1 to 50 nM. In the case of `Cc1ccc2c(N)c(C(=O)N[C@H]3COc4c(ccc(N5CC6CCC(C5)N6)c4F)C3)sc2n1` [Example 103, 3-amino-N-[(3R)-7-{3,8-diazabicyclo[3.2.1]octan-3-yl}-8-fluoro-3,4-dihydro-2H-1-benzopyran-3-yl]-6-methylthieno[2,3-b]pyridine-2-carboxamide], the IC50 is reported as 1 to 50 nM. Molecule `Cc1ccc2c(N)c(C(=O)N[C@H]3COc4cc(N5CC6CCC(C5)N6)c(F)cc4C3)sc2n1` [Example 104, 3-amino-N-[(3R)-7-{3,8-diazabicyclo[3.2.1]octan-3-yl]-6-fluoro-3,4-dihydro-2H-1-benzopyran-3-yl]-6-methylthieno[2,3-b]pyridine-2-carboxamide] has an IC50 of 1 to 50 nM. `Cc1ccc2c(N)c(C(=O)N[C@H]3COc4c(ccc(N5CC6CNCC(C5)O6)c4F)C3)sc2n1` [Example 105, 3-amino-N-[(3R)-8-fluoro-7-{9-oxa-3,7-diazabicyclo[3.3.1]nonan-3-yl}-3,4-dihydro-2H-1-benzopyran-3-yl]-6-methylthieno[2,3-b]pyridine-2-carboxamide] showed an IC50 of 1 to 50 nM. With `Cc1ccc2c(N)c(C(=O)N[C@H]3COc4cc(N5CC6CNCC(C5)O6)c(F)cc4C3)sc2n1` [Example 106, 3-amino-N-[(3R)-6-fluoro-7-{9-oxa-3,7-diazabicyclo[3.3.1]nonan-3-yl}-3,4-dihydro-2H-1-benzopyran-3-yl]-6-methylthieno[2,3-b]pyridine-2-carboxamide] the IC50 was 1 to 50 nM. For `Cc1cnc2c(N)c(C(=O)N[C@H]3COc4c(F)c(N5CC6CCC(C5)N6)cc(F)c4C3)sc2n1` [Example 107, 7-amino-N-[(3R)-7-{3,8-diazabicyclo[3.2.1]octan-3-yl}-5,8-difluoro-3,4-dihydro-2H-1-benzopyran-3-yl]-3-methylthieno[2,3-b]pyrazine-6-carboxamide], the IC50 was 1 to 50 nM. In the case of `Cc1nc2sc(C(=O)N[C@H]3COc4cc(N5CC6CCC(C5)N6)c(F)c(F)c4C3)c(N)c2s1` [Example 108, 6-amino-N-[(3R)-7-{3,8-diazabicyclo[3.2.1]octan-3-yl}-5,6-difluoro-3,4-dihydro-2H-1-benzopyran-3-yl]-2-methylthieno[2,3-d][1,3]thiazole-5-carboxamide], the IC50 is reported as 1 to 50 nM. For `Cc1ccc2c(N)c(C(=O)N[C@H]3CCc4cc(N5CC6CNCC(C5)O6)c(C#N)cc4C3)sc2n1` [Example 109, 3-amino-N-[(2S)-7-cyano-6-{9-oxa-3,7-diazabicyclo[3.3.1]nonan-3-yl}-1,2,3,4-tetrahydronaphthalen-2-yl]-6-methylthieno[2,3-b]pyridine-2-carboxamide], the IC50 was 1 to 50 nM. Molecule `Cc1ccc2c(N)c(C(=O)N[C@H]3COc4c(F)c(N5C[C@@H]6C[C@H]5CN6)cc(F)c4C3)sc2n1` [Example 110, 3-amino-N-[(3R)-7-[(1S,4S)-2,5-diazabicyclo[2.2.1]heptan-2-yl]-5,8-difluoro-3,4-dihydro-2H-1-benzopyran-3-yl]-6-methylthieno[2,3-b]pyridine-2-carboxamide] has an IC50 of 1 to 50 nM. `Cc1ccc2c(N)c(C(=O)N[C@H]3COc4c(F)c(N5C[C@H]6C[C@@H]5CN6)cc(F)c4C3)sc2n1` [Example 111, 3-amino-N-[(3R)-7-[(1R,4R)-2,5-diazabicyclo[2.2.1]heptan-2-yl]-5,8-difluoro-3,4-dihydro-2H-1-benzopyran-3-yl]-6-methylthieno[2,3-b]pyridine-2-carboxamide] was tested, and the IC50 was 1 to 50 nM. In the case of `Cc1ccc2c(N)c(C(=O)N[C@H]3COc4cc(N5C[C@@H]6C[C@H]5CN6)c(F)c(F)c4C3)sc2n1` [Example 112, 3-amino-N-[(3R)-7-[(1S,4S)-2,5-diazabicyclo[2.2.1]heptan-2-yl]-5,6-difluoro-3,4-dihydro-2H-1-benzopyran-3-yl]-6-methylthieno[2,3-b]pyridine-2-carboxamide], the IC50 is reported as 1 to 50 nM. Work on `Cc1ccc2c(N)c(C(=O)N[C@H]3COc4nc(N5CC6CNCC(C5)C6(F)F)ccc4C3)sc2n1` [Example 113, 3-amino-N-[(3R)-7-{9 9-difluoro-3,7-diazabicyclo[3.3.1]nonan-3-yl}-2H b,3H,4H-pyrano[2,3-b]pyridin-3-yl]-6-methylthieno[2,3-b]pyridine-2-carboxamide] yielded an IC50 of 1 to 50 nM. `CCO[C@H]1CN(c2ccc3c(c2)OC[C@H](NC(=O)c2sc4nc(C)ccc4c2N)C3)C[C@@H]1N` [Example 115, 3-amino-N-[(3R)-7-[(3S,4S)-3-amino-4-ethoxypyrrolidin-1-yl]-3,4-dihydro-2H-1-benzopyran-3-yl]-6-methylthieno[2,3-b]pyridine-2-carboxamide] showed an IC50 of 1 to 50 nM. For `CO[C@H]1CN(c2ccc3c(c2)CC[C@H](NC(=O)c2sc4nc(C)ccc4c2N)C3)C[C@@H]1N` [Example 116, 3-amino-N-[(2S)-6-[(3S,4S)-3-amino-4-methoxypyrrolidin-1-yl}-1,2,3,4-tetrahydronaphthalen-2-yl]-6-methylthieno[2,3-b]pyridine-2-carboxamide], the IC50 was 50 to 200 nM.
